The record followed here is patent US9089603B2, “Fluorescent imaging with substituted cyanine dyes” (LI-COR, INC., priority 2010, dated 2015).

Each structure is given as a SMILES string.

The first data set is described as follows: Absorption wavelength of the cyanine dyes in methanol (halo substitution effect). The data set is classed as physicochemical. As to conditions: Table 2. The text has this: [table] Design Principle: We analyzed the properties of a dye scaffold and related compounds and the corresponding substitution effects on the excitation and emission wavelengths. The small size of fluorine is unlikely to produce steric effects, therefore, we explored the electronic effects of fluorine and related substitutions. The Hammett equation (σ-value) is an important tool to understand the electronic effects of the substituents, therefore, we explored the correlation of the wavelength (λMeOH) and the σ-value (vide infra): […]
Consider `CC1(C)C(/C=C/C2=C(c3cccc(CCCCC(=O)O)c3)C(=C/C=C3/N(CCCCS(=O)(=O)[O-])c4ccc(S(=O)(=O)[O-])cc4C3(C)C)/CCC2)=[N+](CCCCS(=O)(=O)[O-])c2ccc(S(=O)(=O)[O-])cc21.[Na+].[Na+].[Na+]` [Compound 11], for which the λMeOH came to 766 nm.

`CC1(C)C(/C=C/C2=C(c3ccccc3F)C(=C/C=C3/N(CCCCS(=O)(=O)[O-])c4ccc(S(=O)(=O)[O-])cc4C3(C)C)/CCC2)=[N+](CCCCS(=O)(=O)[O-])c2ccc(S(=O)(=O)[O-])cc21.[Na+].[Na+].[Na+]` [Compound 12] registered a λMeOH of 772 nm.

The molecule `CC1(C)C(/C=C/C2=C(c3c(F)cccc3F)C(=C/C=C3/N(CCCCS(=O)(=O)[O-])c4ccc(S(=O)(=O)[O-])cc4C3(C)C)/CCC2)=[N+](CCCCS(=O)(=O)[O-])c2ccc(S(=O)(=O)[O-])cc21.[Na+].[Na+].[Na+]` [Compound 13] yielded a λMeOH of 782 nm.

`CC1(C)C(/C=C/C2=C(c3c(F)cc(F)cc3F)C(=C/C=C3/N(CCCCS(=O)(=O)[O-])c4ccc(S(=O)(=O)[O-])cc4C3(C)C)/CCC2)=[N+](CCCCS(=O)(=O)[O-])c2ccc(S(=O)(=O)[O-])cc21.[Na+].[Na+].[Na+]` [Compound 14]: the λMeOH was determined as 785 nm.

`CC1(C)C(/C=C/C2=C(c3c(Cl)cccc3Cl)C(=C/C=C3/N(CCCS(=O)(=O)[O-])c4ccc(S(=O)(=O)[O-])cc4C3(C)C)/CC(C(=O)O)C2)=[N+](CCCS(=O)(=O)[O-])c2ccc(S(=O)(=O)[O-])cc21.[Na+].[Na+].[Na+]` (centres unmarked) [Compound 15]: the λMeOH stood at 782 nm.

As to `COc1cc(F)c(C2=C(/C=C/C3=[N+](CCCCS(=O)(=O)[O-])c4ccc(S(=O)(=O)[O-])cc4C3(C)C)CCC/C2=C\C=C2\N(CCCCS(=O)(=O)[O-])c3ccc(S(=O)(=O)[O-])cc3C2(C)C)c(F)c1.[Na+].[Na+].[Na+]` [Compound 21], the λMeOH worked out at 783 nm.

Take `CCCCOc1ccc(F)c(C2=C(/C=C/C3=[N+](CCCCS(=O)(=O)[O-])c4ccc(S(=O)(=O)[O-])cc4C3(C)C)CCC/C2=C\C=C2\N(CCCCS(=O)(=O)[O-])c3ccc(S(=O)(=O)[O-])cc3C2(C)C)c1F.[Na+].[Na+].[Na+]` [Compound 22]: the λMeOH was 783 nm.

For the molecule `CCCCOc1c(F)cc(F)c(C2=C(/C=C/C3=[N+](CCCCS(=O)(=O)[O-])c4ccc(S(=O)(=O)[O-])cc4C3(C)C)CCC/C2=C\C=C2\N(CCCCS(=O)(=O)[O-])c3ccc(S(=O)(=O)[O-])cc3C2(C)C)c1F.[Na+].[Na+].[Na+]` [Compound 23], the λMeOH is 789 nm.

In turn, `CCCCOc1c(F)c(F)c(C2=C(/C=C/C3=[N+](CCCCS(=O)(=O)[O-])c4ccc(S(=O)(=O)[O-])cc4C3(C)C)CCC/C2=C\C=C2\N(CCCCS(=O)(=O)[O-])c3ccc(S(=O)(=O)[O-])cc3C2(C)C)c(F)c1F.[Na+].[Na+].[Na+]` [Compound 24] showed a λMeOH of 790 nm.

In turn, `CC1(C)C(/C=C/C2=C(c3c(F)cc(C(=O)O)cc3F)C(=C/C=C3/N(CCCCS(=O)(=O)[O-])c4ccc(S(=O)(=O)[O-])cc4C3(C)C)/CCC2)=[N+](CCCCS(=O)(=O)[O-])c2ccc(S(=O)(=O)[O-])cc21.[Na+].[Na+].[Na+]` [Compound 26] yielded a λMeOH of 782 nm.

`CC1(C)C(/C=C/C2=C(c3cccc(F)c3F)C(=C/C=C3/N(CCCCS(=O)(=O)[O-])c4ccc(S(=O)(=O)[O-])cc4C3(C)C)/CC(C(=O)O)C2)=[N+](CCCCS(=O)(=O)[O-])c2ccc(S(=O)(=O)[O-])cc21.[Na+].[Na+].[Na+]` (centres unmarked) [Compound 63a]: the λMeOH stood at 770 nm.

As to `CC1(C)C(/C=C/C2=C(c3ccc(C(=O)O)c(F)c3F)C(=C/C=C3/N(CCCCS(=O)(=O)[O-])c4ccc(S(=O)(=O)[O-])cc4C3(C)C)/CCC2)=[N+](CCCCS(=O)(=O)[O-])c2ccc(S(=O)(=O)[O-])cc21.[Na+].[Na+].[Na+]` [Compound 64], the λMeOH came to 772 nm.

Regarding `CC1(C)C(/C=C/C2=C(c3ccc(CCC(=O)O)c(F)c3F)C(=C/C=C3/N(CCCCS(=O)(=O)[O-])c4ccc(S(=O)(=O)[O-])cc4C3(C)C)/CCC2)=[N+](CCCCS(=O)(=O)[O-])c2ccc(S(=O)(=O)[O-])cc21.[Na+].[Na+].[Na+]` [Compound 65], the λMeOH worked out at 776 nm.

Regarding `CC1(C)C(/C=C/C2=C(c3ccc(C(=O)NCCCCCC(=O)O)c(F)c3F)C(=C/C=C3/N(CCCCS(=O)(=O)[O-])c4ccc(S(=O)(=O)[O-])cc4C3(C)C)/CCC2)=[N+](CCCCS(=O)(=O)[O-])c2ccc(S(=O)(=O)[O-])cc21.[Na+].[Na+].[Na+]` [Compound 66], the λMeOH came to 773 nm.

The same data set, now with this note: Table 5.
Molecule `CC1(C)C(/C=C/C2=C(c3ccccc3F)C(=C/C=C3/N(CCCCS(=O)(=O)[O-])c4ccc(S(=O)(=O)[O-])cc4C3(C)C)/CCC2)=[N+](CCCCCC(=O)O)c2ccc(S(=O)(=O)[O-])cc21.[Na+].[Na+]` came in with a λMeOH of 772 nm.

In the case of `CC1(C)C(/C=C/C2=C(c3c(F)cccc3F)C(=C/C=C3/N(CCCCS(=O)(=O)[O-])c4ccc(S(=O)(=O)[O-])cc4C3(C)C)/CCC2)=[N+](CCCCCC(=O)O)c2ccc(S(=O)(=O)[O-])cc21.[Na+].[Na+]`, the λMeOH was 782 nm.

Turning to `CC1(C)C(/C=C/C2=C(c3c(F)cc(F)cc3F)C(=C/C=C3/N(CCCCS(=O)(=O)[O-])c4ccc(S(=O)(=O)[O-])cc4C3(C)C)/CCC2)=[N+](CCCCCC(=O)O)c2ccc(S(=O)(=O)[O-])cc21.[Na+].[Na+]`, the λMeOH turned out to be 785 nm.

With `CCCCOc1c(F)cc(F)c(C2=C(/C=C/C3=[N+](CCCCCC(=O)O)c4ccc(S(=O)(=O)[O-])cc4C3(C)C)CCC/C2=C\C=C2\N(CCCCS(=O)(=O)[O-])c3ccc(S(=O)(=O)[O-])cc3C2(C)C)c1F.[Na+].[Na+]`, the λMeOH was 789 nm.

For `CC1(C)C(/C=C/C2=C(c3c(F)cc(C(=O)O)cc3F)C(=C/C=C3/N(CCCCS(=O)(=O)[O-])c4ccc(S(=O)(=O)[O-])cc4C3(C)C)/CCC2)=[N+](CCCCCC(=O)O)c2ccc(S(=O)(=O)[O-])cc21.[Na+].[Na+]`, the λMeOH worked out at 782 nm.

As to `CC1(C)C(/C=C/C2=C(c3c(Cl)cccc3Cl)C(=C/C=C3/N(CCCCS(=O)(=O)[O-])c4ccc(S(=O)(=O)[O-])cc4C3(C)C)/CCC2)=[N+](CCCCCC(=O)O)c2ccc(S(=O)(=O)[O-])cc21.[Na+].[Na+]`, the λMeOH amounted to 782 nm.

`COc1cc(F)c(C2=C(/C=C/C3=[N+](CCCCCC(=O)O)c4ccc(S(=O)(=O)[O-])cc4C3(C)C)CCC/C2=C\C=C2\N(CCCCS(=O)(=O)[O-])c3ccc(S(=O)(=O)[O-])cc3C2(C)C)c(F)c1.[Na+].[Na+]`: the λMeOH was found to be 772 nm.

Turning to `CCCCOc1ccc(F)c(C2=C(/C=C/C3=[N+](CCCCCC(=O)O)c4ccc(S(=O)(=O)[O-])cc4C3(C)C)CCC/C2=C\C=C2\N(CCCCS(=O)(=O)[O-])c3ccc(S(=O)(=O)[O-])cc3C2(C)C)c1F.[Na+].[Na+]`, the λMeOH was 779 nm.

As to `CCCCOc1c(F)c(F)c(C2=C(/C=C/C3=[N+](CCCCCC(=O)O)c4ccc(S(=O)(=O)[O-])cc4C3(C)C)CCC/C2=C\C=C2\N(CCCCS(=O)(=O)[O-])c3ccc(S(=O)(=O)[O-])cc3C2(C)C)c(F)c1F.[Na+].[Na+]`, the λMeOH is 790 nm.
